Results on 34 compounds are retold here after the Kinase Knowledgebase extract (Sharma et al. 2016).

The structures appear in SMILES notation. Bounds are passed on as bounds.

This assay concerns the target PIK3CG (human) (UniProt P48736). Briefly: Inhibition of PIK3CG Kinase Activity.

Chain of PIK3CG (human) (P48736 whole entry, looked up): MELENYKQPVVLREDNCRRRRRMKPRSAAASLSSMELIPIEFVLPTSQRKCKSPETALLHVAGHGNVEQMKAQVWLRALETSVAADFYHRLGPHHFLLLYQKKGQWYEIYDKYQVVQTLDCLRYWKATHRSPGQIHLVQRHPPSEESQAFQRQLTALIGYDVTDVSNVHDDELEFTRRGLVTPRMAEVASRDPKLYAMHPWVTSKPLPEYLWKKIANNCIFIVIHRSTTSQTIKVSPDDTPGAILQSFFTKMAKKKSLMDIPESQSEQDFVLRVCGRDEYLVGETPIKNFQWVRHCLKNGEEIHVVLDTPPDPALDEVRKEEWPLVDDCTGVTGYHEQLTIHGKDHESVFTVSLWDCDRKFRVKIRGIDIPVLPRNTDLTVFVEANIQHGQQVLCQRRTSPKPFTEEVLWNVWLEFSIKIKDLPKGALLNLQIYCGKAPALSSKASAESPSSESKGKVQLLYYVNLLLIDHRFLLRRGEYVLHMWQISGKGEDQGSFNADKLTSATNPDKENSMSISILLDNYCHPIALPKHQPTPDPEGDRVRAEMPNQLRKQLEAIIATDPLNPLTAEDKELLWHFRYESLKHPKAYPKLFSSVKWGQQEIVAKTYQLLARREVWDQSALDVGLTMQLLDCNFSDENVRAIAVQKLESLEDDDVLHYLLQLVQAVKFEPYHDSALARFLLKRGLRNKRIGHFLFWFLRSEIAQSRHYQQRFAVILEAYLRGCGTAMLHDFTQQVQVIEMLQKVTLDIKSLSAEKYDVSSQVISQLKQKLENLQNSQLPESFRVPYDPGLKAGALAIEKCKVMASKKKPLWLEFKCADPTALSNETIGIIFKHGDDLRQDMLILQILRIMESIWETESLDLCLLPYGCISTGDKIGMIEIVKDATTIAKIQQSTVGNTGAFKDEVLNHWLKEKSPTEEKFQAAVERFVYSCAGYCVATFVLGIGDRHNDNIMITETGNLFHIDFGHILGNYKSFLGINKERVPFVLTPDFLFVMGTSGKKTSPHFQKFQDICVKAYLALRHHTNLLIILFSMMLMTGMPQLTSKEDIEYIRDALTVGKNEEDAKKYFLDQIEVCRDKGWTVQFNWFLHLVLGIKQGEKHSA

For `COC1c2nc(-c3cncc(OCC(F)F)c3)cc(C)c2C(=O)N1c1cnn(CC(F)(F)F)c1` (centres undefined), the Ki – broadly, the equilibrium dissociation constant of an inhibitor or competing ligand from its target – is < 100 nM.

As to `CCn1cc(N2C(=O)c3ccc(-c4cnc(OC)c(OC)c4)nc3C2C)cn1` (centres undefined), the Ki was < 100 nM.

As for `COc1cc(-c2ccc3c(n2)C(C)N(c2cn(CC(F)(F)F)cn2)C3=O)cnc1OC` (centres undefined), the Ki is < 100 nM.

As for `COc1ccc(-c2cc(C)c3c(n2)CN(c2cnn(CC(F)(F)F)c2)C3=O)cn1`, the Ki was < 100 nM.

In the case of `COc1ncc(-c2cc(C)c3c(n2)C(C)(C)N(c2cnn(CC(F)(F)F)c2)C3=O)cc1C(=O)N[C@H]1CCOC1`, the Ki is < 100 nM.

With `COc1cc(-c2cc(C)c3c(n2)CN(c2cc(O)[nH]n2)C3=O)cnc1OC`, the Ki is < 100 nM.

As for `COc1cc(-c2ccc3c(n2)CN(c2ccn(CC(F)(F)F)n2)C3=O)cnc1OC`, the Ki is < 100 nM.

Consider `COc1cc(-c2ccc3c(n2)CN(c2cnn(Cc4cccc5c4OCCCO5)c2)C3=O)cnc1OC`, for which the Ki is < 100 nM.

In the case of `CCn1ccc(N2Cc3nc(-c4cnc(OC)c(OCC5CC5)c4)cc(C)c3C2=O)n1`, the Ki was < 100 nM.

For `COCCO[C@@H]1c2nc(-c3cnc(OC)c(OC)c3)ccc2C(=O)N1c1cnn(CC(F)(F)F)c1`, the Ki is < 100 nM.

`CCc1cc(N2Cc3nc(-c4cnc(OC)c(OC)c4)cc(C)c3C2=O)n[nH]1`: the Ki was < 100 nM.

For `COc1cncc(-c2cc(C)c3c(n2)CN(c2ccn(CC4CCCO4)n2)C3=O)c1` (centres undefined), the Ki was < 100 nM.

Take `COc1cc(-c2cc(C)c3c(n2)CN(c2ccn(C4CC4)n2)C3=O)cnc1OC`: the Ki is < 100 nM.

`COc1cc(-c2ccc3c(n2)CN(c2cncc(CC#N)c2)C3=O)cnc1OC`: the Ki was < 100 nM.

Regarding `COc1cncc(-c2cc(C)c3c(n2)CN(c2cnn(CC(F)(F)F)c2)C3=O)c1`, the Ki is < 100 nM.

As for `CON=Cc1cncc(-c2cc(C)c3c(n2)C(C)(C)N(c2cnn(CC(F)(F)F)c2)C3=O)c1`, the Ki was < 100 nM.

As for `CCCn1nc(N2Cc3nc(-c4cnc(OC)c(OC)c4)cc(C)c3C2=O)cc1COC`, the Ki is < 100 nM.

`COc1ncc(-c2ccc3c(n2)CN(c2cnn(CC(F)(F)F)c2)C3=O)cc1CO` displayed a Ki of 100 to 490 nM.

Turning to `CCn1cc(N2C(=O)c3c(C)cc(-c4cncc(OC)c4)nc3C2(C)C)cn1`, the Ki was < 100 nM.

As for `COc1cncc(-c2cc(C)c3c(n2)C(OCCO)N(c2cnn(CC(F)(F)F)c2)C3=O)c1` (centres undefined), the Ki was < 100 nM.

`CCn1ccc(N2Cc3nc(-c4cnc(OC)c(OC)c4)ccc3C2=O)n1`: the Ki is < 100 nM.

As for `CCOc1ncc(-c2ccc3c(n2)CN(c2cnn(CC#N)c2)C3=O)cc1OC`, the Ki is < 100 nM.

Turning to `CCn1cc(N2Cc3nc(-c4cnc(OCCOC)c(OC)c4)cc(C)c3C2=O)cn1`, the Ki was < 100 nM.

On to `COc1cc(-c2ccc3c(n2)C(C)N(c2ccn(C[C@H](C)O)n2)C3=O)cnc1OC` (some centres undefined), for which the Ki is < 100 nM.

Take `CCOc1ncc(-c2cc(C)c3c(n2)C(C)(O)N(c2cnn(CC(F)(F)F)c2)C3=O)cc1OC` (centres undefined): the Ki was < 100 nM.

Take `C=C1c2nc(-c3cnc(OC)c(OC)c3)ccc2C(=O)N1c1cnn(CC(F)(F)F)c1`: the Ki is < 100 nM.

For the compound `COc1cncc(-c2cc(C)c3c(n2)C2(CN(C(=O)OC(C)(C)C)C2)N(c2cnn(CC(F)(F)F)c2)C3=O)c1`, the Ki is < 100 nM.

Turning to `Cc1cc(-c2cncc(OCC(F)F)c2)nc2c1C(=O)N(c1cnn(CC(F)F)c1)C2(C)C`, the inhibition constant (Ki) is < 100 nM.

For the compound `CCNC(=O)Cn1cc(N2Cc3nc(-c4cnc(OC)c(OC)c4)ccc3C2=O)cn1`, the Ki was < 100 nM.

As to `COc1cc(-c2cc(C)c3c(n2)CN(c2cnn(C(C)(C)C#N)c2)C3=O)cnc1OC`, the Ki is < 100 nM.

Consider `COc1ncc(-c2cc(C)c3c(n2)CN(c2cc[nH]n2)C3=O)cc1OC(F)F`, for which the Ki was < 100 nM.

As to `Cc1cc(-c2cncc(OC(F)F)c2)nc2c1C(=O)N(c1cnn(CC(F)(F)F)c1)C2`, the Ki was < 100 nM.

Take `COc1cncc(-c2cc(C)c3c(n2)CN(c2cnn(C(C)(C)C#N)c2)C3=O)c1`: the Ki was < 100 nM.

On to `COc1cc(-c2cc(C)c3c(n2)C2(CCCO2)N(c2cnn(CC(F)(F)F)c2)C3=O)cnc1OC` (centres undefined), for which the Ki was < 100 nM.
